Read-outs that look alike come from different tables or passages of the source.
Assays:
Assay type in all cases: cell-based
[1] = tested on: microfilariae of Dirofilaria immitis; assay: Dirofilaria immitis, Microfilaria (DiMf) In Vitro Assay; details: Dirofilaria immitis, 72 h, read-out: DiMf MED, Minimum Effective Dose, D. immitis microfilariae motility, in vitro
D. immitis L4 larvae = assay: Dirofilaria immitis, L4 Stage (DiL4) In Vitro Assay; details: for minimal effective concentration: Dirofilaria immitis, 72 h, read-out: DiL4 MED, Minimum Effective Dose, D. immitis L4 larvae motility, in vitro; for DiMf/DiL4: larval stage selectivity, ratio of DiMf MED to DiL4 MED
[2] = tested on: third stage larvae of Haemonchus contortus; assay: Haemonchus contortus, Larvae Stage 3 (HcL3) In Vitro Assay; details: Haemonchus contortus, 96 h
[3] = read-out: HcL3 MED, Minimum Effective Dose, H. contortus third stage larvae, approximately 96 hours
[4] = read-out: HcL3 MED, approximately 96 hours incubation, multiple-resistant field isolate
[5] = read-out: HcL3 MED (symbol after Ex#), approximately 96 hours incubation, multiple-resistant field isolate

| SMILES | minimal effective concentration [1] [µM] | minimal effective concentration (D. immitis L4 larvae) [µM] | DiMf/DiL4 (D. immitis L4 larvae) | minimal effective concentration ([2]; read-out: HcL3 MED, Haemonchus contortus third stage larvae in vitro, class mark appended to the Ex # in Table 3) [µM] | minimal effective concentration [2, 3] [µM] | minimal effective concentration [2, 4] [µM] | minimal effective concentration [2, 5] [µM] |
| --- | --- | --- | --- | --- | --- | --- | --- |
| COc1nccc(Cc2ccc(C[C@H]3OC(=O)[C@H](CC(C)C)N(C)C(=O)[C@@H](C)OC(=O)[C@H](CC(C)C)N(C)C(=O)[C@@H](Cc4ccc(Cc5ccnc(OC)c5OC)cc4)OC(=O)[C@H](CC(C)C)N(C)C(=O)[C@@H](C)OC(=O)[C@H](CC(C)C)N(C)C3=O)cc2)c1OC [Example 3-334, (3S,6R,9S,12R,15S,18R,21S,24R)-6,18-bis(4-((2,3-dimethoxypyridin-4-yl)methyl)benzyl)-3,9,15,21-tetraisobutyl-4,10,12,16,22,24-hexamethyl-1,7,13,19-tetraoxa-4,10,16,22-tetraazacyclotetracosan-2,5,8,11,14,17,20,23-octaone] | 0.003 | 0.0003 | 10 | < 1 | 0.1 | ≤ 1 |  |
| CC(C)C[C@H]1C(=O)O[C@H](Cc2ccc(Cc3ccc4cn[nH]c4c3)cc2)C(=O)N(C)[C@@H](CC(C)C)C(=O)O[C@H](C)C(=O)N(C)[C@@H](CC(C)C)C(=O)O[C@H](Cc2ccccc2)C(=O)N(C)[C@@H](CC(C)C)C(=O)O[C@H](C)C(=O)N1C [Example 4-18, (3S,6R,9S,12R,15S,18R,21S,24R)-6-(4-((1H-indazol-6-yl)methyl)benzyl)-18-benzyl-3,9,15,21-tetraisobutyl-4,10,12,16,22,24-hexamethyl-1,7,13,19-tetraoxa-4,10,16,22-tetraazacyclotetracosan-2,5,8,11,14,17,20,23-octaone] | 0.05 | 0.001 | 50 |  | > 10 |  |  |
| Cc1c[nH]c(C)c1Cc1ccc(C[C@H]2OC(=O)[C@H](CC(C)C)N(C)C(=O)[C@@H](C)OC(=O)[C@H](CC(C)C)N(C)C(=O)[C@@H](Cc3ccccc3)OC(=O)[C@H](CC(C)C)N(C)C(=O)[C@@H](C)OC(=O)[C@H](CC(C)C)N(C)C2=O)cc1 [Example 4-19, (3S,6R,9S,12R,15S,18R,21S,24R)-6-benzyl-18-(4-((2,4-dimethyl-1H-pyrrol-3-yl)methyl)benzyl)-3,9,15,21-tetraisobutyl-4,10,12,16,22,24-hexamethyl-1,7,13,19-tetraoxa-4,10,16,22-tetraazacyclotetracosan-2,5,8,11,14,17,20,23-octaone] | 0.1 | 0.001 | 100 |  | > 10 |  |  |
| CC(C)C[C@H]1C(=O)O[C@H](Cc2ccc(C(O)c3coc4ccccc34)cc2)C(=O)N(C)[C@@H](CC(C)C)C(=O)O[C@H](C)C(=O)N(C)[C@@H](CC(C)C)C(=O)O[C@H](Cc2ccccc2)C(=O)N(C)[C@@H](CC(C)C)C(=O)O[C@H](C)C(=O)N1C (stereo partly drawn) [Example 4-21, (3S,6R,9S,12R,15S,18R,21S,24R)-6-(4-(benzofuran-3-yl(hydroxy)methyl)benzyl)-18-benzyl-3,9,15,21-tetraisobutyl-4,10,12,16,22,24-hexamethyl-1,7,13,19-tetraoxa-4,10,16,22-tetraazacyclotetracosan-2,5,8,11,14,17,20,23-octaone] | 0.05 | 0.001 | 50 |  | > 10 |  |  |
| CC(C)C[C@H]1C(=O)O[C@H](Cc2ccc(Cc3ncco3)cc2)C(=O)N(C)[C@@H](CC(C)C)C(=O)O[C@H](C)C(=O)N(C)[C@@H](CC(C)C)C(=O)O[C@H](Cc2ccccc2)C(=O)N(C)[C@@H](CC(C)C)C(=O)O[C@H](C)C(=O)N1C [Example 4-30, (3S,6R,9S,12R,15S,18R,21S,24R)-6-benzyl-3,9,15,21-tetraisobutyl-4,10,12,16,22,24-hexamethyl-18-(4-(oxazol-2-ylmethyl)benzyl)-1,7,13,19-tetraoxa-4,10,16,22-tetraazacyclotetracosan-2,5,8,11,14,17,20,23-octaone] | 0.001 | 0.001 | 1 |  | 1 | ≤ 1 | < 1 |
| CC(C)C[C@H]1C(=O)O[C@H](Cc2ccc(Cc3ccco3)cc2)C(=O)N(C)[C@@H](CC(C)C)C(=O)O[C@H](C)C(=O)N(C)[C@@H](CC(C)C)C(=O)O[C@H](Cc2ccccc2)C(=O)N(C)[C@@H](CC(C)C)C(=O)O[C@H](C)C(=O)N1C [Example 4-32, (3S,6R,9S,12R,15S,18R,21S,24R)-6-benzyl-18-(4-(furan-2-ylmethyl)benzyl)-3,9,15,21-tetraisobutyl-4,10,12,16,22,24-hexamethyl-1,7,13,19-tetraoxa-4,10,16,22-tetraazacyclotetracosan-2,5,8,11,14,17,20,23-octaone] | 0.003 | 0.001 | 3 |  | 1 | ≤ 1 | < 1 |
| Cc1ccsc1Cc1ccc(C[C@H]2OC(=O)[C@H](CC(C)C)N(C)C(=O)[C@@H](C)OC(=O)[C@H](CC(C)C)N(C)C(=O)[C@@H](Cc3ccccc3)OC(=O)[C@H](CC(C)C)N(C)C(=O)[C@@H](C)OC(=O)[C@H](CC(C)C)N(C)C2=O)cc1 [Example 4-34, (3S,6R,9S,12R,15S,18R,21S,24R)-6-benzyl-3,9,15,21-tetraisobutyl-4,10,12,16,22,24-hexamethyl-18-(4-((3-methylthiophen-2-yl)methyl)benzyl)-1,7,13,19-tetraoxa-4,10,16,22-tetraazacyclotetracosan-2,5,8,11,14,17,20,23-octaone] | 0.01 | 0.0003 | 33.3 |  | 0.5 | ≤ 1 | < 1 |
| CC(C)C[C@H]1C(=O)O[C@H](Cc2ccc(Cc3occc3C#N)cc2)C(=O)N(C)[C@@H](CC(C)C)C(=O)O[C@H](C)C(=O)N(C)[C@@H](CC(C)C)C(=O)O[C@H](Cc2ccccc2)C(=O)N(C)[C@@H](CC(C)C)C(=O)O[C@H](C)C(=O)N1C [Example 4-40, 2-(4-(((2R,5S,8R,11S,14R,17S,20R,23S)-14-benzyl-5,11,17,23-tetraisobutyl-4,8,10,16,20,22-hexamethyl-3,6,9,12,15,18,21,24-octaoxo-1,7,13,19-tetraoxa-4,10,16,22-tetraazacyclotetracosan-2-yl)methyl)benzyl)furan-3-carbonitrile] | 0.0005 | 0.0002 | 2.5 |  | 0.5 | ≤ 1 | < 1 |
| CC(C)C[C@H]1C(=O)O[C@H](Cc2ccc(Cc3ccsc3)cc2)C(=O)N(C)[C@@H](CC(C)C)C(=O)O[C@H](C)C(=O)N(C)[C@@H](CC(C)C)C(=O)O[C@H](Cc2ccccc2)C(=O)N(C)[C@@H](CC(C)C)C(=O)O[C@H](C)C(=O)N1C [Example 4-50, (3S,6R,9S,12R,15S,18R,21S,24R)-6-benzyl-3,9,15,21-tetraisobutyl-4,10,12,16,22,24-hexamethyl-18-(4-(thiophen-3-ylmethyl)benzyl)-1,7,13,19-tetraoxa-4,10,16,22-tetraazacyclotetracosan-2,5,8,11,14,17,20,23-octaone] | 0.01 | 0.001 | 10 |  | 1.8 |  | 1 to 3.3 |
| CC(C)C[C@H]1C(=O)O[C@H](Cc2ccc(Cc3ccnn3C)cc2)C(=O)N(C)[C@@H](CC(C)C)C(=O)O[C@H](C)C(=O)N(C)[C@@H](CC(C)C)C(=O)O[C@H](Cc2ccccc2)C(=O)N(C)[C@@H](CC(C)C)C(=O)O[C@H](C)C(=O)N1C [Example 4-63, (3S,6R,9S,12R,15S,18R,21S,24R)-6-benzyl-3,9,15,21-tetraisobutyl-4,10,12,16,22,24-hexamethyl-18-(4-((1-methyl-1H-pyrazol-5-yl)methyl)benzyl)-1,7,13,19-tetraoxa-4,10,16,22-tetraazacyclotetracosan-2,5,8,11,14,17,20,23-octaone] | 0.001 | 0.001 | 1 |  | 1 | ≤ 1 | < 1 |
| CC(C)C[C@H]1C(=O)O[C@H](Cc2ccc(Cc3sccc3Cl)cc2)C(=O)N(C)[C@@H](CC(C)C)C(=O)O[C@H](C)C(=O)N(C)[C@@H](CC(C)C)C(=O)O[C@H](Cc2ccccc2)C(=O)N(C)[C@@H](CC(C)C)C(=O)O[C@H](C)C(=O)N1C [Example 4-75, (3S,6R,9S,12R,15S,18R,21S,24R)-6-benzyl-18-(4-((3-chlorothiophen-2-yl)methyl)benzyl)-3,9,15,21-tetraisobutyl-4,10,12,16,22,24-hexamethyl-1,7,13,19-tetraoxa-4,10,16,22-tetraazacyclotetracosan-2,5,8,11,14,17,20,23-octaone] | 0.01 | 0.0005 | 20 |  | 1 | ≤ 1 | < 1 |
| COc1ccsc1Cc1ccc(C[C@H]2OC(=O)[C@H](CC(C)C)N(C)C(=O)[C@@H](C)OC(=O)[C@H](CC(C)C)N(C)C(=O)[C@@H](Cc3ccccc3)OC(=O)[C@H](CC(C)C)N(C)C(=O)[C@@H](C)OC(=O)[C@H](CC(C)C)N(C)C2=O)cc1 [Example 4-105, (3S,6R,9S,12R,15S,18R,21S,24R)-6-benzyl-3,9,15,21-tetraisobutyl-18-(4-((3-methoxythiophen-2-yl)methyl)benzyl)-4,10,12,16,22,24-hexamethyl-1,7,13,19-tetraoxa-4,10,16,22-tetraazacyclotetracosan-2,5,8,11,14,17,20,23-octaone] | 0.005 | 0.0002 | 25 |  | 0.3 | ≤ 1 | < 1 |

Reference: patent publication US11771738B2 (Zoetis Services LLC, priority 2018, dated 2023)
